This passage reports melting point results from patent publication US20050154042A1, “N-alkyl pyrroles as HMG-CoA reductase inhibitors” (priority 2003, published 2005).

Where a name gives a salt, the structure may show the parent alone.

What is called melting point is the temperature, or range, at which the solid turns liquid. With `CC(C)n1c(CC[C@@H](O)C[C@@H](O)CC(=O)O)c(-c2ccc(F)cc2)c(-c2ccccc2)c1C(=O)NCc1nc2ccccc2[nH]1` (as salt: sodium) [Example 92], the melting point is 234 to 236 °C (dec.). In the case of `CC(C)n1c(CC[C@@H](O)C[C@@H](O)CC(=O)[O-])c(-c2ccc(F)cc2)c(-c2ccc(F)cc2)c1C(=O)Nc1ccc(O)cc1.[Na+]` [Example 133, (3R,5R)-7-[3,4-Bis-(4-fluoro-phenyl)-5-(4-hydroxy-phenylcarbamoyl)-1-isopropyl-1H-pyrrol-2-yl]-3,5-dihydroxy-heptanoic Acid Sodium Salt] it was 228 to 230 °C. In the case of `CC(C)n1c(CC[C@@H](O)C[C@@H](O)CC(=O)O)c(-c2ccc(F)cc2)c(-c2ccccc2)c1C(=O)NCc1ccc(F)cc1` (as salt: sodium) [Example 9, (3R,5R)-7-[5-(4-Fluoro-benzylcarbamoyl)-3-(4-fluoro-phenyl)-1-isopropyl-4-phenyl-1H-pyrrol-2-yl]-3,5-dihydroxy-heptanoic Acid Sodium Salt] it was 218 to 220 °C; in that of `COC(=O)C[C@H]1C[C@@H](CCc2c(-c3ccc(F)cc3)c(-c3ccc(F)cc3)cn2C(C)C)OC(C)(C)O1` [Example 24, (4R,6R)-(6-{2-[3,4-Bis-(4-fluoro-phenyl)-1-isopropyl-1H-pyrrol-2-yl]-ethyl}-2,2-dimethyl-[1,3]dioxan-4-yl)-acetic Acid Methyl Ester], 55 to 57 °C.

With `CC(C)n1c(CC[C@@H]2C[C@@H](O)CC(=O)O2)c(-c2ccc(F)cc2)c(-c2ccccc2)c1C(=O)Nc1ccc(C(=O)O)cn1` [Example 124, (2R,4R)-6-({4-(4-Fluoro-phenyl)-5-[2-(4-hydroxy-6-oxo-tetrahydro-pyran-2-yl)-ethyl]-1-isopropyl-3-phenyl-1H-pyrrole-2-carbonyl}-amino)-nicotinic Acid], the melting point was 172 to 174 °C (dec.). For `CC(C)n1c(CCC(O)C[C@@H](O)CC(=O)[O-])c(-c2ccc(F)cc2)c(-c2ccccc2)c1C(=O)Nc1ccccc1.[Na+]` (stereo partly drawn) [Example 3, (3R)-7-[3-(4-Fluoro-phenyl)-1-isopropyl-4-phenyl-5-phenylcarbamoyl-1H-pyrrol-2-yl]-3,5-dihydroxy-heptanoic Acid Sodium Salt] the value was 240 to 242 °C; for `COc1ccc([C@@H](C)NC(=O)c2c(-c3ccc(F)cc3)c(-c3ccc(F)cc3)c(/C=C/[C@@H](O)C[C@@H](O)CC(=O)[O-])n2C(C)C)cc1.[Na+]` [Example 155, (3R,5S)-7-{3,4-Bis-(4-fluoro-phenyl)-1-isopropyl-5-[(R)-1-(4-methoxy-phenyl)-ethylcarbamoyl]-1H-pyrrol-2-yl)-3,5-dihydroxy-hept-6-enoic Acid Sodium Salt], 255 to 257 °C; for `CCNC(=O)c1c(-c2ccccc2)c(-c2ccc(F)cc2)c(/C=C/[C@@H](O)C[C@@H](O)CC(=O)[O-])n1C(C)C.[Na+]` [Example 159, (3R,5S)-7-[5-Ethylcarbamoyl-3-(4-fluoro-phenyl)-1-isopropyl-4-phenyl-1H-pyrrol-2-yl]-3,5-dihydroxy-hept-6-enoic Acid Sodium Salt], 226 to 228 °C.

As for `CC(C)OC(=O)c1ccc(CNC(=O)c2c(-c3ccccc3)c(-c3ccc(F)cc3)c(/C=C/[C@@H](O)C[C@@H](O)CC(=O)[O-])n2C(C)C)cc1.[Na+]` [Example 149, (3R,5S)-7-[3-(4-Fluoro-phenyl)-5-(4-isopropoxycarbonyl-benzylcarbamoyl)-1-isopropyl-4-phenyl-1H-pyrrol-2-yl]-3,5-dihydroxy-hept-6-enoic Acid Sodium Salt], the melting point fell in the range of 222 to 224 °C.

As for `CC(C)n1c(/C=C/[C@@H](O)C[C@@H](O)CC(=O)[O-])c(-c2ccc(F)cc2)c(-c2ccc(F)cc2)c1C(=O)Nc1cccc(Cl)c1.[Na+]` [Example 139, (3R,5S)-7-[5-(3-Chloro-phenylcarbamoyl)-3,4-bis-(4-fluoro-phenyl)-1-isopropyl-1H-pyrrol-2-yl]-3,5-dihydroxy-hept-6-enoic Acid Sodium Salt], the melting point was 229 to 230 °C.

With `CC(C)n1c(CC[C@@H](O)C[C@@H](O)CC(=O)[O-])c(-c2ccc(F)cc2)c(-c2ccc(F)cc2)c1C(=O)NCc1ccccn1.[Na+]` [Example 69, (3R,5R)-7-{3,4-bis-(4-fluoro-phenyl)-1-isopropyl-5-[(pyridin-2-ylmethyl)-carbamoyl]-1H-pyrrol-2-yl}-3,5-dihydroxy-heptanoate Sodium Salt], the melting point is 200 to 205 °C.

Compound `CC(C)n1c(CC[C@@H](O)C[C@@H](O)CC(=O)[O-])c(-c2ccc(F)cc2)c(-c2ccccc2)c1C(=O)Nc1cccc(C#N)c1.[Na+]` [Example 142, (3R,5R)-7-[5-(3-Cyano-phenylcarbamoyl)-3-(4-fluoro-phenyl)-1-isopropyl-4-phenyl-1H-pyrrol-2-yl]-3,5-dihydroxy-heptanoic Acid Sodium Salt] gave a melting point of 197 to 199 °C. For `Cc1cc(CNC(=O)c2c(-c3ccccc3)c(-c3ccc(F)cc3)c(/C=C/[C@@H](O)C[C@@H](O)CC(=O)[O-])n2C(C)C)no1.[Na+]` [Example 79, trans-(3R,5 S)-7-{3-(4-fluoro-phenyl)-1-isopropyl-5-[(5-methyl-isoxazole-3-yl Methyl)-carbamoyl]-4-phenyl-1H-pyrrol-2-yl}-3,5-dihydroxy-hept-6-enoate Sodium Salt] the value was 200 to 203 °C. For `CC(C)n1c(CC[C@@H](O)C[C@@H](O)CC(=O)[O-])c(-c2ccc(F)cc2)c(-c2ccccc2)c1C(=O)NCc1cccc(C(=O)[O-])c1.[Na+].[Na+]` [Example 163, (3R,5R)-3-({[5-(6-Carboxy-3,5-dihydroxy-hexyl)-4-(4-fluoro-phenyl)-1-isopropyl-3-phenyl-1H-pyrrole-2-carbonyl]-amino}-methyl)-benzoic Acid Disodium Salt] the value was 240 to 245 °C; for `Cc1c[nH]c(CNC(=O)c2c(-c3ccccc3)c(-c3ccc(F)cc3)c(CC[C@@H](O)C[C@@H](O)CC(=O)O)n2C(C)C)n1` (as salt: sodium) [Example 95], 213 to 215 °C (dec.); for `CC(C)n1c(CC[C@@H](O)C[C@@H](O)CC(=O)[O-])c(-c2ccc(F)cc2)c(-c2ccc(F)cc2)c1C(=O)Nc1ccccn1.[Na+]` [Example 120, (3R,5R)-7-[3,4-Bis-(4-fluoro-phenyl)-1-isopropyl-5-(pyridin-2-ylcarbamoyl)-1H-pyrrol-2-yl]-3,5-dihydroxy-heptanoic Acid Sodium Salt], 217 to 219 °C (dec.). For `CC(C)n1c(/C=C/[C@@H](O)C[C@@H](O)CC(=O)[O-])c(-c2ccc(F)cc2)c(-c2ccc(F)cc2)c1C(=O)Nc1cccc(OCc2ccccc2)c1.[Na+]` [Example 132, (3R,5 S)-7-[5-(3-Benzyloxy-phenylcarbamoyl)-3,4-bis-(4-fluoro-phenyl)-1-isopropyl-1H-pyrrol-2-yl]-3,5-dihydroxy-hept-6-enoic Acid Sodium Salt] the value was 225 to 227 °C. `CC(C)n1c(/C=C/[C@@H](O)C[C@@H](O)CC(=O)O)c(-c2ccc(F)cc2)c(-c2ccc(F)cc2)c1C(=O)Nc1ccc(CC(N)=O)cc1` (as salt: sodium) [Example 14, (3R,5S)-7-[5-(4-Carbamoylmethyl-phenylcarbamoyl)-3,4-bis-(4-fluoro-phenyl)-1-isopropyl-1H-pyrrol-2-yl]-3,5-dihydroxy-hept-6-enoic Acid Sodium Salt] showed a melting point of 220 to 222 °C.
